Test results as given in ChEMBL document CHEMBL5365413, “Optimizing metabolic stability of phosphodiesterase 5 inhibitors: Discovery of a potent N-(pyridin-3-ylmethyl)quinoline derivative targeting synaptic plasticity” (Bioorg Med Chem Lett, 2023).
Calls of active or inactive are those of the source. The calls are words filed in the database; no cut-off is given here.

How the values were obtained:
[1] = target: cGMP-specific 3',5'-cyclic phosphodiesterase (Homo sapiens, UniProt O76074); experiment: Inhibition of human recombinant PDE5A1 by fluorescence based assay
[2] = Metabolic stability in human liver microsomes assessed as intrinsic clearance; type: ADME, Microsome
[3] = Metabolic stability in human liver microsomes assessed as half life; type: ADME, Microsome
[4] = Selectivity index, ratio of IC50 for inhibition of PDE6 (unknown origin) to IC50 for inhibition of human recombinant PDE5A1
[5] = Inhibition of PDE1 (unknown origin) by fluorescent based assay; set-up: species or system Homo sapiens
[6] = Inhibition of PDE2 (unknown origin) by fluorescent based assay; set-up: species or system Homo sapiens
[7] = Inhibition of PDE3 (unknown origin) by fluorescent based assay; set-up: species or system Homo sapiens
[8] = Inhibition of PDE6 (unknown origin) by fluorescent based assay; set-up: species or system Homo sapiens
[9] = Inhibition of PDE8 (unknown origin) by fluorescent based assay; set-up: species or system Homo sapiens
[10] = Inhibition of PDE9 (unknown origin) by fluorescent based assay; set-up: species or system Homo sapiens
[11] = Inhibition of PDE10 (unknown origin) by fluorescent based assay; set-up: species or system Homo sapiens
[12] = Inhibition of PDE11 (unknown origin) by fluorescent enzymatic assay; set-up: species or system Homo sapiens
[13] = Selectivity index, ratio of IC50 for inhibition of PDE1 (unknown origin) to IC50 for inhibition of human recombinant PDE5A1
[14] = Selectivity index, ratio of IC50 for inhibition of PDE2 (unknown origin) to IC50 for inhibition of human recombinant PDE5A1
[15] = Selectivity index, ratio of IC50 for inhibition of PDE3 (unknown origin) to IC50 for inhibition of human recombinant PDE5A1
[16] = Selectivity index, ratio of IC50 for inhibition of PDE4 (unknown origin) to IC50 for inhibition of human recombinant PDE5A1
[17] = Selectivity index, ratio of IC50 for inhibition of PDE7 (unknown origin) to IC50 for inhibition of human recombinant PDE5A1
[18] = Selectivity index, ratio of IC50 for inhibition of PDE8 (unknown origin) to IC50 for inhibition of human recombinant PDE5A1
[19] = Selectivity index, ratio of IC50 for inhibition of PDE9 (unknown origin) to IC50 for inhibition of human recombinant PDE5A1
[20] = Selectivity index, ratio of IC50 for inhibition of PDE10 (unknown origin) to IC50 for inhibition of human recombinant PDE5A1
[21] = Selectivity index, ratio of IC50 for inhibition of PDE11 (unknown origin) to IC50 for inhibition of human recombinant PDE5A1
Phosphodiesterase 4 = Phosphodiesterase 4 (Homo sapiens, UniProt P27815+Q08499+Q07343+Q08493); experiment: Inhibition of PDE4 (unknown origin) by fluorescent based assay; type: protein assay
Phosphodiesterase 7 = Phosphodiesterase 7 (Homo sapiens, UniProt Q13946+Q9NP56); experiment: Inhibition of PDE7 (unknown origin) by fluorescent based assay; type: protein assay
Hippocampus [22] = experiment: Neuroprotective activity against o-Tau perfused mouse hippocampus tissue assessed as restoration of synaptic plasticity by measuring hippocampal […] at 50 nM for 10 min followed by tetanus stimulation and measured for 2 hrs by electrophysiology analysis; type: functional, tissue-based; details: time 130.0 min
Hippocampus [23] = experiment: Neuroprotective activity against o-Tau perfused mouse hippocampus tissue assessed as restoration of synaptic plasticity by measuring residual potentiation at 50 nM for 10 min followed by tetanus stimulation and measured for 2 hrs by electrophysiology analysis relative to control; type: functional, tissue-based; details: time 130.0 min
Hippocampus [24] = experiment: Neuroprotective activity against mouse hippocampus tissue assessed as restoration of synaptic plasticity by measuring residual potentiation at 50 nM for 10 min followed by tetanus stimulation and measured for 2 hrs by electrophysiology analysis relative to control; type: functional, tissue-based; details: time 130.0 min

`Cn1ccc2cc(CNc3c(CO)cnc4c(C5CC5)cc(C#N)cc34)ccc21` gave an IC50 [1] of 2800 nM.

Molecule `COc1ncc(CNc2c(CO)cnc3c(C4CC4)cc(C#N)cc23)cc1Cl` has a CLH [2] of 72 µL/min/mg, a t1/2 [3] of 19.5 min and a Ratio IC50 [4] of 1.9. The IC50 [1] was 30 nM, the IC50 [5] was “Not Active” and the IC50 [6] was > 10000 nM. The IC50 [7] was “Not Active”, the IC50 [8] was 58 nM and the IC50 [9] was “Not Active”. For the same molecule, the IC50 [10] was “Not Active”, the IC50 [11] was “Not Active” and the IC50 [12] was “Not Active”.

In the case of `[2H]C([2H])(Nc1c(CO)cnc2c(C3CC3)cc(C#N)cc12)c1ccc(OC)c(Cl)c1`, the CLH [2] is reported as 85 µL/min/mg, the t1/2 [3] is reported as 16.4 min and the IC50 [1] is reported as 5 nM.

In the case of `COc1ccc(CNc2c(CO)cnc3c(C4CC4)cc(C#N)cc23)cn1`, the CLH [2] is reported as 31 µL/min/mg, the t1/2 [3] is reported as 44.6 min and the Ratio IC50 [13] is reported as > 500. The Ratio IC50 [14] was 9, the Ratio IC50 [15] was > 500 and the Ratio IC50 [16] was > 500. The Ratio IC50 [4] was 13, the Ratio IC50 [17] was > 500 and the Ratio IC50 [18] was > 500. The Ratio IC50 [19] was > 500, the Ratio IC50 [20] was > 500 and the Ratio IC50 [21] was > 500. For the same molecule, the IC50 ([5]; read-out: IC50) was > 10000 nM, the IC50 [6] was 180 nM and the IC50 ([7]; read-out: IC50) was > 10000 nM. The IC50 (Phosphodiesterase 4) was > 10000 nM, the IC50 [8] was 260 nM and the IC50 (Phosphodiesterase 7) was > 10000 nM. The IC50 ([9]; read-out: IC50) was > 10000 nM, the IC50 ([10]; read-out: IC50) was > 10000 nM and the IC50 ([11]; read-out: IC50) was > 10000 nM. The IC50 ([12]; read-out: IC50) was > 10000 nM, the Activity (Hippocampus [22]) was “Active” and the Activity (Hippocampus [23]) was “Active”. For the same molecule, the Activity (Hippocampus [24]) was “inactive”.

Work on `COc1cc(CNc2c(CO)cnc3c(C4CC4)cc(C#N)cc23)cc(OC)c1OC` yielded an IC50 [1] of 3400 nM.

With `N#Cc1cc(C2CC2)c2ncc(CO)c(NCc3ccnc(Cl)c3)c2c1` the CLH [2] was 80 µL/min/mg, the t1/2 [3] was 17.3 min and the IC50 [1] was 820 nM.

`N#Cc1cc(C2CC2)c2ncc(CO)c(NCc3ccc4c(c3)OCO4)c2c1` showed a CLH [2] of 88 µL/min/mg, a t1/2 [3] of 15.7 min and an IC50 [1] of 190 nM.

With `COc1ccc(CNc2c(CO)cnc3c(C4CC4)cc(C#N)cc23)cc1Cl` the CLH [2] was 80 µL/min/mg and the t1/2 [3] was 20.5 min.

For `CCOC(=O)c1cnc2c(C3CC3)cc(C#N)cc2c1NCc1ccc(OC)nc1`, the IC50 [1] was 1300 nM.

With `COc1cc(CNc2c(CO)cnc3c(C4CC4)cc(C#N)cc23)ccn1` the CLH [2] was 48 µL/min/mg, the t1/2 [3] was 28.8 min and the IC50 [1] was 180 nM.
